These results are taken from patent US20040235007A1, “Method for detecting negatively supercoiled DNA” (National Institute of Genetics, priority 2003, published 2004).

The test system of test [1] is hsp70-coding region. As to the kind of experiment: Southern analysis of psoralen crosslinking in salivary glands. The test is classed as cell-based, Drosophila melanogaster. To be noted: heat-shocked salivary gland chromosomes treated with α-amanitin prior to the crosslinking step; FIG. 3 lanes 6 and 7. The method, then:
(§1) Drosophila melanogaster Oregon R was grown at 18° C. According to the test protocol, some third-instar larvae were subjected to heat shock treatment; i.e., the larvae were collected in a polypropylene tube, and the tube was submerged in a 37° C. water bath for 10 minutes. Salivary glands were obtained through dissection of the larvae in a dissection buffer (10 mM HEPES-KOH (pH 7.6), 5 mM MgCl2, 5 mM KCl, 130 mM NaCl, 1% polyethylene glycol 6000). Also according to the test protocol, some of the salivary gland specimens were exposed to X-ray irradiation for 60 minutes at a dose rate of about 3 Gy/min (TORREX CABINET X-RAY SYSTEM Model TRX2800, Faxitron), whereby nicks were introduced into DNA.
Application of heat shock and dissection of larvae were performed in a manner similar to those employed for staining. […]
After electrophoresis, the gel was incubated with a denaturing solution (0.5M NaOH, 1.5M NaCl) at 65° C. for 100 minutes for reverse crosslinking of DNA with psoralen. […] Hybridization signals were detected by use of X-ray film. […]
The protocol will be described briefly as follows. […] The DNA fragments were blotted onto a nylon membrane. hsp70 located at 87A7 (FIG. 1, CRs and DDS) was analyzed using probes through the Southern method. […]

Test [2] deals with negative supercoils of DNA on salivary gland chromosomes. The experiment in a line: Staining of salivary gland chromosomes with biotinylated psoralen / Alexa 488-labeled streptavidin. The class given is cell-based, Drosophila melanogaster. Here is the method:
as §1
Four or five pairs of salivary glands were treated with a dissection buffer (40 μL) containing 0.01% digitonin and rinsed with a dissection buffer containing no digitonin. Subsequently, the resultant salivary glands were treated with a dissection buffer containing 0.2 ng/ml biotinylated psoralen for 10 minutes. […] Br-UTP was detected with anti-BrdU monoclonal antibody (Roche) and rhodamin-labeled anti-mouse IgG antibody.
Biotinylated psoralen was detected with Alexa 488-labeled streptavidin (Molecular Probe). […] Fluoroimages were analyzed with a Carl Zeiss Axioplan 2 microscope and IP lab software.
In order to visualize negative supercoils of DNA on salivary gland chromosomes throughout the entire genome, we have extended the psoralen crosslinking protocol, using a protocol in which biotinylated psoralen is detected with fluorescence-labeled streptavidin. […] Biotinylated psoralen was detected with Alexa 488-labeled streptavidin. […] Such signals were not detected when the chromosomes had been treated with a psoralen-free buffer, or when the crbsslinking step was not performed after treatment with psoralen. […] When chromosomes had been irradiated with X-ray (180 Gy) before crosslinking with biotinylated psoralen to thereby introduce nicks into the DNA, psoralen signals which may otherwise appear in interbands and puffs were not detected (FIGS. 5A to 5C). […]

Setting [3] is: heat shocked larvae, α-amanitin treatment prior to crosslinking, FIGS. 7D to 7F.

On to α-Amanitin, for which the “crosslink-related signals (psoralen crosslinking, Southern)” value in test [1] is given as “substantially no crosslink-related signals were detected”. Besides, in test [2] (setting [3]), the “configuration of heat shock puffs” value is “did not affect” and the “psoralen signals in heat shock puffs” value is reported as “not detected”. In addition, the “psoralen signals in interbands and puffs” value in test [2] (non-heat shocked, 3 μg/mL α-amanitin before crosslinking with biotinylated psoralen, FIGS. 5D and 5E) is recorded as “undetected”.
